Measured values from patent US12441765B2, “Peptides and medical uses thereof” (Anbition S.R.L., priority 2018, dated 2025).
Where two headings read alike, the source gives them in different places. Blank lines part the entries; values can stand above or below the compound they belong to.

How the values were obtained:
[1] = Serum protease stability in 10% fetal calf serum (RP-HPLC); format: in vitro ADME; details: 10% FCS
Method: The stability of the peptide iVR1-Cys in 10% serum (fetal calf serum, FCS) in a 50 mM phosphate buffer solution, pH 7.3, at 168 h was determined as described by Ponticelli et al., relying on a method based on RP-HPLC chromatography, described therein [Ponticelli et al., J Biol Chem. 2008 Dec. 5; 283 (49): 34250-9].
The reference curve was constructed by dissolving the compound in DMSO at increasing concentrations of between 0.1 μmol/L and 1000 μmol/L in order to have complete dissolution. The concentration of the molecule left in contact with 10% FCS at the initial concentration of 10 μmol/L was then determined by drawing 3 aliquots at time t=0, then every hour in the first 12 hours and then at 24, 72, 120, and 168 h. The aliquots were diluted 1:1 with acetic acid 0.1 M in order to detach any peptide bound to the albumin, centrifuged to remove any precipitated materials and analyzed by RP-HPLC under the conditions reported in Ponticelli et al. The amount of residual peptide detected in the aliquots, expressed as a percentage relative to the initial amount, was plotted as a function of time. The results are shown in Table VII as the mean of the three determinations±the standard deviation (SD).

[2] = target: T1, VEGF-A/VEGFR-1 interaction (Homo sapiens, UniProt P17948); assay: ELISA competition assay of VEGF-A binding to VEGFR-1; details: for binding % (VEGF-A/VEGFR-1 interaction): residual binding
T1 construct: the form consisting of the seven extracellular domains of the receptor fused to the Fc domain of human lgG; purchased R&D Systems 321-FL (receptor); 293-VE (VEGF-A)
Method: The binding reaction was conducted for one hour at 37° C., followed by one hour at room temperature. At the end of the binding and/or competition step, anti-human-PIGF biotinylated polyclonal antibodies (R&D Systems, cat No. BAF264) or anti-human-VEGF-A (R&D Systems, cat No. BAF293) were added to the wells at the concentration of 300 ng/ml in PBET. After one hour of incubation at 37° C. followed by one hour at room temperature, an HRP-conjugated avidin-streptavidin system (Vectastain elite ABC kit) and a substrate for HRP (o-phenylenediamine-Sigma, cat No. P1526) were added to the wells. Quantization was performed by determining the absorbance at 490 nm. Any inhibitory activity of the peptides was expressed in terms of % of residual binding, comparing the data obtained for the binding of PIGF or VEGF-A to the receptors in the presence of the tetrameric peptides with those in the absence of the same. iVR1 represented the positive control of the inhibition of the PIGF/VEGFR-1 or VEGF-A/VEGFR-1 interaction.

[3] = target: T2, PIGF/VEGFR-1 interaction (Homo sapiens, UniProt P17948); assay: ELISA competition assay of PIGF binding to VEGFR-1; details: for binding % (PIGF/VEGFR-1 interaction): residual binding
T2 construct: the form consisting of the seven extracellular domains of the receptor fused to the Fc domain of human lgG; purchased R&D Systems 321-FL (receptor); 264-PG (PlGF)
Method: The assay to test the binding of PIGF or VEGF-A with the VEGFR-1 receptor is based on the ELISA method [Ponticelli et al., JBC. 2008 Dec. 5; 283 (49): 34250-9] and was performed using reagents acquired from R&D Systems.
The human recombinant receptor VEGFR-1, in particular the form consisting of the seven extracellular domains of the receptor fused to the Fc domain of human lgG (R&D Systems, cat N° 321-FL), was made to adhere in the wells of 96-well microplates at a concentration of 0.5 μg/ml in PBS pH 7.5 (100 μl/well) for 16 hours at room temperature (RT).
After the non-specific binding sites had been blocked in the wells using a buffer solution consisting of PBS pH 7.5 containing 3% BSA, 5 ng/ml of recombinant PIGF (R&D Systems, cat N° 264-PG), or 5 ng/ml of recombinant VEGF-A (R&D Systems, cat N° 293-VE) of human origin in PBET (PBS pH 7.5, BSA 0.1%, EDTA 5 mM, Tween 0.004%) were added to the wells with the adhered receptor.
Simultaneously with the ligands, i.e., PIGF or VEGF-A, graduated doses of iVR1, iVR1-Cys or a control peptide (PC-[(S-Ser)-(S-Ala)-(S-Cha) tripeptide with a tetrameric structure identical to the structure of the iVR1 peptides]) were added at concentrations comprised between 780 and 50000 nM. The binding reaction was conducted for one hour at 37° C., followed by one hour at room temperature.
At the end of the binding and/or competition step, anti-human-PIGF biotinylated polyclonal antibodies (R&D Systems, cat No. BAF264) or anti-human-VEGF-A (R&D Systems, cat No. BAF293) were added to the wells at the concentration of 300 ng/ml in PBET. After one hour of incubation at 37° C. followed by one hour at room temperature, an HRP-conjugated avidin-streptavidin system (Vectastain elite ABC kit) and a substrate for HRP (o-phenylenediamine-Sigma, cat No. P1526) were added to the wells. Quantization was performed by determining the absorbance at 490 nm.
Any inhibitory activity of the peptides was expressed in terms of % of residual binding, comparing the data obtained for the binding of PIGF or VEGF-A to the receptors in the presence of the tetrameric peptides with those in the absence of the same. iVR1 represented the positive control of the inhibition of the PIGF/VEGFR-1 or VEGF-A/VEGFR-1 interaction.

[4] = target: VEGFR1 (Homo sapiens, UniProt P17948); details: cited from earlier work
VEGFR1, sequence (P17948 27-1338): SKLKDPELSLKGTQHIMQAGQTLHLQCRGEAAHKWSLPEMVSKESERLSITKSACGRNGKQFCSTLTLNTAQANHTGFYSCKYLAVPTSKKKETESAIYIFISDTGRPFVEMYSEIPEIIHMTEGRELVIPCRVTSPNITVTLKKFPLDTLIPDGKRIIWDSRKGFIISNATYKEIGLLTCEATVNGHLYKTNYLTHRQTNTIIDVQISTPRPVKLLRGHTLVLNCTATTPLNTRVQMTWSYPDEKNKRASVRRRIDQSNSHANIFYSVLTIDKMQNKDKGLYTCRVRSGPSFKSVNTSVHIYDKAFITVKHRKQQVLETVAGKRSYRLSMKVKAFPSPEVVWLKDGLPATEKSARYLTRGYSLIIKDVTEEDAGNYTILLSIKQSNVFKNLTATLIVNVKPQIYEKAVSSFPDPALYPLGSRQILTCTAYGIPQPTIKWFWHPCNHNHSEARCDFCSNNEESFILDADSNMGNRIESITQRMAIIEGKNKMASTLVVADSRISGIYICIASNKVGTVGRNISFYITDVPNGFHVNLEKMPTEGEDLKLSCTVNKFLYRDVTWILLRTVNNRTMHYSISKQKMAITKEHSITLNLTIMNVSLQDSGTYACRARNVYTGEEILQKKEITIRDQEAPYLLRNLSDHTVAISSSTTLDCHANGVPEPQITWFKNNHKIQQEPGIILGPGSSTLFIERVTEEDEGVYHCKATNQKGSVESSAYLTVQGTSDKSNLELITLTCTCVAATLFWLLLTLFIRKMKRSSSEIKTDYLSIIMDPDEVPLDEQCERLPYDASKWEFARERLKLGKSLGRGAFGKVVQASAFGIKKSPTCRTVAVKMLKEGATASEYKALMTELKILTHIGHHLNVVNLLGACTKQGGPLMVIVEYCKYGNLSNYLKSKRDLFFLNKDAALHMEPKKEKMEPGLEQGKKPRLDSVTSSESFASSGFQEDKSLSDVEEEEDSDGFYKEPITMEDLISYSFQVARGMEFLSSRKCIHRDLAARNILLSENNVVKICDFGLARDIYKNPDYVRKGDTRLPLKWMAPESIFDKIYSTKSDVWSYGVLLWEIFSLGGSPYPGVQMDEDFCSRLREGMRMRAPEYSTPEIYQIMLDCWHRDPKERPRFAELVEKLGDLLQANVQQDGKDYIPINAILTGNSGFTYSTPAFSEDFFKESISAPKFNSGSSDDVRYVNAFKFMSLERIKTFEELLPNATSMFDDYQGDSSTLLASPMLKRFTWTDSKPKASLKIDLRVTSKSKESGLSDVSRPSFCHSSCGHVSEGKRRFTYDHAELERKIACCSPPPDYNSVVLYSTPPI

T1 sequence (P17948 27-758 limits assumed): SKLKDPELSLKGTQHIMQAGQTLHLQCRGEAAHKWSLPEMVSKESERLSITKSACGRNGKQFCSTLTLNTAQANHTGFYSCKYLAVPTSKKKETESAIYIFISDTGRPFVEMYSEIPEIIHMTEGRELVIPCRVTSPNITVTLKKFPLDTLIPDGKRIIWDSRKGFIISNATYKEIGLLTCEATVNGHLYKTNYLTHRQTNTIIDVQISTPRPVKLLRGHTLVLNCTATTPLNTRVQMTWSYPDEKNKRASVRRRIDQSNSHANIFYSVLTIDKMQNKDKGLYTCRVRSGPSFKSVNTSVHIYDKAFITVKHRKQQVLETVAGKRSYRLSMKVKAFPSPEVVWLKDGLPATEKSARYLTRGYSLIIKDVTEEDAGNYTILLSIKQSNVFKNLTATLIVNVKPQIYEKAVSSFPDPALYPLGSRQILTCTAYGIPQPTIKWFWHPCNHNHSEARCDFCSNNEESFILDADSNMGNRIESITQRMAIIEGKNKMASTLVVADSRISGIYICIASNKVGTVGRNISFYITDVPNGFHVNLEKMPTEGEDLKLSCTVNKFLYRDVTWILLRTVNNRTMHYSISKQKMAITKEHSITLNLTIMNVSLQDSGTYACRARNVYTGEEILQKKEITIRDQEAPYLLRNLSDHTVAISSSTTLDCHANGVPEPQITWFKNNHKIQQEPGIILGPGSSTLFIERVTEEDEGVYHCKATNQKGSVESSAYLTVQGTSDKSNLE
T2 sequence (P17948 27-758 limits assumed): as above

% residual peptide ± SD ([1]; 0 h, 50 mM phosphate buffer pH 7.3, initial 10 μmol/L): 101 ± 4%
remaining at 1 h, 10 μmol/L ([1]; calf (bovine), 10% fetal calf serum, 1 h, pH 7.3, read-out: % residual peptide ± SD): 100 ± 11%
remaining at 2 h, 10 μmol/L ([1]; calf (bovine), 10% fetal calf serum, 2 h, pH 7.3, read-out: % residual peptide ± SD): 99 ± 7%
remaining at 3 h, 10 μmol/L ([1]; calf (bovine), 10% fetal calf serum, 3 h, pH 7.3, read-out: % residual peptide ± SD): 98 ± 5%
remaining at 4 h, 10 μmol/L ([1]; calf (bovine), 10% fetal calf serum, 4 h, pH 7.3, read-out: % residual peptide ± SD): 97 ± 4%
remaining at 5 h, 10 μmol/L ([1]; calf (bovine), 10% fetal calf serum, 5 h, pH 7.3, read-out: % residual peptide ± SD): 96 ± 5%
remaining at 6 h, 10 μmol/L ([1]; calf (bovine), 10% fetal calf serum, 6 h, pH 7.3, read-out: % residual peptide ± SD): 99 ± 6%
remaining at 7 h, 10 μmol/L ([1]; calf (bovine), 10% fetal calf serum, 7 h, pH 7.3, read-out: % residual peptide ± SD): 95 ± 8%
remaining at 8 h, 10 μmol/L ([1]; calf (bovine), 10% fetal calf serum, 8 h, pH 7.3, read-out: % residual peptide ± SD): 96 ± 5%
remaining at 9 h, 10 μmol/L ([1]; calf (bovine), 10% fetal calf serum, 9 h, pH 7.3, read-out: % residual peptide ± SD): 95 ± 6%
remaining at 10 h, 10 μmol/L ([1]; calf (bovine), 10% fetal calf serum, 10 h, pH 7.3, read-out: % residual peptide ± SD): 94 ± 10%
remaining at 11 h, 10 μmol/L ([1]; calf (bovine), 10% fetal calf serum, 11 h, pH 7.3, read-out: % residual peptide ± SD): 94 ± 8%
remaining at 12 h, 10 μmol/L ([1]; calf (bovine), 10% fetal calf serum, 12 h, pH 7.3, read-out: % residual peptide ± SD): 93 ± 4%
remaining at 24 h, 10 μmol/L ([1]; calf (bovine), 10% fetal calf serum, 24 h, pH 7.3, read-out: % residual peptide ± SD): 93 ± 6%
remaining at 72 h, 10 μmol/L ([1]; calf (bovine), 10% fetal calf serum, 72 h, pH 7.3, read-out: % residual peptide ± SD): 92 ± 7%
remaining at 120 h, 10 μmol/L ([1]; calf (bovine), 10% fetal calf serum, 120 h, pH 7.3, read-out: % residual peptide ± SD): 91 ± 5%
remaining at 168 h, 10 μmol/L ([1]; calf (bovine), 10% fetal calf serum, 168 h, pH 7.3, read-out: % residual peptide ± SD): 92 ± 8%
SMILES: N[C@H](CCC(=O)O)C(=O)N[C@@H](CSCc1ccccc1)C(=O)N[C@@H](CC1CCCCC1)C(=O)NCCCC[C@H](NC(=O)[C@H](CC1CCCCC1)NC(=O)[C@H](CSCc1ccccc1)NC(=O)[C@H](N)CCC(=O)O)C(=O)NCCCC[C@H](NC(=O)[C@H](CCCCNC(=O)[C@H](CC1CCCCC1)NC(=O)[C@H](CSCc1ccccc1)NC(=O)[C@H](N)CCC(=O)O)NC(=O)[C@H](CC1CCCCC1)NC(=O)[C@H](CSCc1ccccc1)NC(=O)[C@H](N)CCC(=O)O)C(=O)N[C@H](CS)C(=O)O [iVR1-Cys]

binding % (VEGF-A/VEGFR-1 interaction) ([2]; peptide 780 nM): 98.36%
binding % (VEGF-A/VEGFR-1 interaction) ([2]; peptide 1560 nM): 96.21%
binding % (VEGF-A/VEGFR-1 interaction) ([2]; peptide 3125 nM): 93.93%
binding % (VEGF-A/VEGFR-1 interaction) ([2]; peptide 6250 nM): 66.00%
binding % (VEGF-A/VEGFR-1 interaction) ([2]; peptide 12500 nM): 37.02%
binding % (VEGF-A/VEGFR-1 interaction) ([2]; peptide 25000 nM): 21.45%
binding % (VEGF-A/VEGFR-1 interaction) ([2]; peptide 50000 nM): 8.60%
IC50 ([2]; read-out: IC50 for VEGF-A/VEGFR-1 inhibition): ~10 µM
binding % (PIGF/VEGFR-1 interaction) ([3]; peptide 780 nM): 99.36%
binding % (PIGF/VEGFR-1 interaction) ([3]; peptide 1560 nM): 101.32%
binding % (PIGF/VEGFR-1 interaction) ([3]; peptide 3125 nM): 96.10%
binding % (PIGF/VEGFR-1 interaction) ([3]; peptide 6250 nM): 68.49%
binding % (PIGF/VEGFR-1 interaction) ([3]; peptide 12500 nM): 44.57%
binding % (PIGF/VEGFR-1 interaction) ([3]; peptide 25000 nM): 36.02%
binding % (PIGF/VEGFR-1 interaction) ([3]; peptide 50000 nM): 26.26%
IC50 ([3]; read-out: IC50 of inhibition of the interaction of PIGF with VEGFR-1): ~10 µM
SMILES: N[C@H](CCC(=O)O)C(=O)N[C@@H](CSCc1ccccc1)C(=O)N[C@@H](CC1CCCCC1)C(=O)NCCCC[C@H](NC(=O)[C@H](CC1CCCCC1)NC(=O)[C@H](CSCc1ccccc1)NC(=O)[C@H](N)CCC(=O)O)C(=O)NCCCC[C@H](NC(=O)[C@H](CCCCNC(=O)[C@H](CC1CCCCC1)NC(=O)[C@H](CSCc1ccccc1)NC(=O)[C@H](N)CCC(=O)O)NC(=O)[C@H](CC1CCCCC1)NC(=O)[C@H](CSCc1ccccc1)NC(=O)[C@H](N)CCC(=O)O)C(=O)NCC(=O)O [iVR1]
IC50 ([4]; in vitro, reported by Ponticelli et al., read-out: IC50 of inhibition of the interaction of PIGF, VEGF-A and VEGF-B with VEGFR1): ~10 µM
IC50 ([4]; reported in Ponticelli et al., read-out: affinity towards VEGFR1 (expressed as IC50)): ≥ 10 µM
